From patent US9656988B2 (Pharmacyclics LLC, priority 2013, dated 2017)
Like-named read-outs stand apart in the source and are kept apart here.

Biological target: BTK (Homo sapiens (Human), UniProt Q06187)
Assay: Btk in vitro inhibitory activity (one of Method A TR-FRET, Method B electrophoretic mobility shift, Method C radiometric filter binding)
Format: biochemical
[1] = determined using one of the methods of Example 355a, 355b and 355c, read-out: BTK IC50

Sequence of BTK (Q06187 whole entry): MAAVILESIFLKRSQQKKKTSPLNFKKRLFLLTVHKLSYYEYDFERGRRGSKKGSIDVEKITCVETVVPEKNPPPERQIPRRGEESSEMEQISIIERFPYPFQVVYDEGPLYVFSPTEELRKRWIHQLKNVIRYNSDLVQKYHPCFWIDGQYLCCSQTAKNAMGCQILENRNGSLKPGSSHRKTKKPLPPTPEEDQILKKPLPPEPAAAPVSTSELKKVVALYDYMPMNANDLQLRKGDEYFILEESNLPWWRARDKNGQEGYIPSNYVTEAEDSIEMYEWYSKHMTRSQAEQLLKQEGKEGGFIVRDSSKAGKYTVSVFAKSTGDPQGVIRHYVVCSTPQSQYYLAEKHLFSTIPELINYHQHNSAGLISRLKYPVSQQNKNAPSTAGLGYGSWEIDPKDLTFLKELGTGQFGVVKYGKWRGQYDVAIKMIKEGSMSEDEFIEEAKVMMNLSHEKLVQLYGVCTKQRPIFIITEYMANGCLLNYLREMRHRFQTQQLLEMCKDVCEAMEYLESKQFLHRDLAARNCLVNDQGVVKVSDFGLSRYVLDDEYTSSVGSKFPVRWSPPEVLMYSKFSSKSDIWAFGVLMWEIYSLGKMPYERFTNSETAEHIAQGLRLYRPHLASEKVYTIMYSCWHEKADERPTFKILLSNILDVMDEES

Q: `CN(C)C/C=C/C(=O)N1CCC[C@@H](Nc2nnc(C(N)=O)c(Nc3ccc(C(=O)N4CCOCC4)cc3)n2)C1` [Example 66, (R,E)-3-(1-(4-(dimethylamino)but-2-enoyl)piperidin-3-ylamino)-5-(4-(morpholine-4-carbonyl)phenylamino)-1,2,4-triazine-6-carboxamide] was tested. Which IC50 [1] did it give?
A: < 10 nM

Q: How did the IC50 [1] turn out when `NC(=O)c1ncc(N2CCC[C@@H](NC(=O)c3cncc(F)c3)C2)nc1Nc1ccc(C2CCN(C3CCCC3)CC2)cc1` [Example 305, (R)-3-(4-(1-cyclopentylpiperidin-4-yl)phenylamino)-5-(3-(5-fluoronicotinamido)piperidin-1-yl)pyrazine-2-carboxamide] was run?
A: < 10 nM

Q: What about the IC50 (read-out: Btk (IC50)) of the same molecule?
A: < 10 nM

Q: How did the IC50 [1] turn out when `CN(C)C(=O)N[C@@H]1CCCN(c2cnc(C(N)=O)c(Nc3ccc(C4CCN(CCOCCO)CC4)cc3)n2)C1` [Example 177, (R)-5-(3-(3,3-dimethylureido)piperidin-1-yl)-3-(4-(1-(2-(2-hydroxyethoxy)ethyl)piperidin-4-yl)phenylamino)pyrazine-2-carboxamide] was run?
A: < 10 nM

Q: And the IC50 (read-out: Btk (IC50))?
A: < 10 nM

Q: `CN(C(=O)N[C@@H]1CCCN(c2cnc(C(N)=O)c(NC3CCCC3)n2)C1)c1ccccc1` [Example 351, (R)-3-(cyclopentylamino)-5-(3-(3-methyl-3-phenylureido)piperidin-1-yl)pyrazine-2-carboxamide] was tested. Which IC50 [1] did it give?
A: 1000 to 10000 nM

Q: Which results are given for `CCC(=O)N1CCC(C)(c2ccc(Nc3nc(N4CCC[C@@H](N5CCN(C)C5=O)[C@H]4C)cnc3C(N)=O)cc2)CC1` [Example 255, 3-(4-(4-methyl-1-propionylpiperidin-4-yl)phenylamino)-5-((2R,3R)-2-methyl-3-(3-methyl-2-oxoimidazolidin-1-yl)piperidin-1-yl)pyrazine-2-carboxamide]?
A: IC50 [1]: < 10 nM; IC50 (read-out: Btk (IC50)): < 10 nM

Q: With `NC(=O)c1nnc(N2CCC[C@@H](NC(=O)c3ccc(Cl)cc3)C2)nc1Nc1ccc(C(=O)N2CCOCC2)cc1` [Example 8, (R)-3-(3-(4-chlorobenzamido)piperidin-1-yl)-5-(4-(morpholine-4-carbonyl)phenylamino)-1,2,4-triazine-6-carboxamide] as the molecule, how does the IC50 [1] read?
A: < 10 nM

Q: `C[C@@H]1[C@H](N2CCN(C)C2=O)CCCN1c1cnc(C(N)=O)c(Nc2ccc(C3(C)CCN(C4CCCC4)CC3)cc2)n1` [Example 253, 3-(4-(1-cyclopentyl-4-methylpiperidin-4-yl)phenylamino)-5-((2R,3R)-2-methyl-3-(3-methyl-2-oxoimidazolidin-1-yl)piperidin-1-yl)pyrazine-2-carboxamide] was tested. Which IC50 [1] did it give?
A: < 10 nM

Q: `CC(C)N1CCC(C)(c2ccc(Nc3nc(N4CCC[C@@H](N5CCN(C)C5=O)C4)cnc3C(N)=O)cc2)CC1` [Example 264, (R)-3-(4-(1-isopropyl-4-methylpiperidin-4-yl)phenylamino)-5-(3-(3-methyl-2-oxoimidazolidin-1-yl)piperidin-1-yl)pyrazine-2-carboxamide] was tested. Which IC50 (read-out: Btk (IC50)) did it give?
A: < 10 nM

Q: Which IC50 [1] does the source give for `CC(C)(C)c1ccc(C(=O)N[C@@H]2CCCN(c3nnc(C(N)=O)c(Nc4ccc(-c5ncco5)cc4)n3)C2)cc1` [Example 58, (R)-3-(3-(4-tert-butylbenzamido)piperidin-1-yl)-5-(4-(oxazol-2-yl)phenylamino)-1,2,4-triazine-6-carboxamide] here?
A: 10 to 100 nM

Q: With `CN1CCN([C@@H]2CCCN(c3cnc(C(N)=O)c(Nc4ccc(C5(C(F)(F)F)CC5)cc4)n3)C2)C1=O` [Example 262, (R)-5-(3-(3-methyl-2-oxoimidazolidin-1-yl)piperidin-1-yl)-3-(4-(1-(trifluoromethyl)cyclopropyl)phenylamino)pyrazine-2-carboxamide] as the molecule, how does the IC50 [1] read?
A: 10 to 100 nM

Q: With `C[C@@H]1[C@H](NC(=O)N(C)C)CCCN1c1cnc(C(N)=O)c(Nc2ccc(S(C)(=O)=O)cc2)n1` [Example 244, 5-((2R,3R)-3-(3,3-dimethylureido)-2-methylpiperidin-1-yl)-3-(4-(methylsulfonyl)phenylamino)pyrazine-2-carboxamide] as the molecule, how does the IC50 [1] read?
A: < 10 nM

Q: `CCOCCOc1ccc(Nc2nc(N3CCC[C@@H](NC(=O)c4ccc(OC)cc4)C3)cnc2C(N)=O)cc1` [Example 113, (R)-3-(4-(2-ethoxyethoxy)phenylamino)-5-(3-(4-methoxybenzamido)piperidin-1-yl)pyrazine-2-carboxamide] was tested. Which IC50 [1] did it give?
A: 10 to 100 nM

Q: What does the source list for `COc1ccc(C(=O)N[C@@H]2CCCN(c3cnc(C(N)=O)c(Nc4ccc5ncsc5c4)n3)C2)cc1` [Example 121, (R)-3-(benzo[d]thiazol-6-ylamino)-5-(3-(4-methoxybenzamido)piperidin-1-yl)pyrazine-2-carboxamide]?
A: IC50 [1]: 10 to 100 nM; IC50 (read-out: Btk (IC50)): 10 to 100 nM

Q: Which IC50 (Btk (IC50)) does the source give for `CN(C)C(=O)N(C)[C@@H]1CCCN(c2cnc(C(N)=O)c(Nc3ccc(C4CCN(C5CCCC5)CC4)cc3)n2)C1` [Example 225, (R)-3-(4-(1-cyclopentylpiperidin-4-yl)phenylamino)-5-(3-(1,3,3-trimethylureido)piperidin-1-yl)pyrazine-2-carboxamide] here?
A: 10 to 100 nM

Q: What about the IC50 [1] of the same molecule?
A: < 10 nM

Q: Which IC50 [1] does the source give for `CCC(=O)N[C@@H]1CCCN(c2cnc(C(N)=O)c(Nc3ccc(C4CCN(C5CCCC5)CC4)cc3)n2)C1` [Example 296, (R)-3-(4-(1-cyclopentylpiperidin-4-yl)phenylamino)-5-(3-propionamidopiperidin-1-yl)pyrazine-2-carboxamide] here?
A: < 10 nM

Q: And the IC50 (read-out: Btk (IC50))?
A: < 10 nM

Q: What does the source list for `NC(=O)c1nnc(N2CCC[C@@H](NC(=O)C(=O)N3CCCCC3)C2)nc1Nc1ccc(C(=O)N2CCOCC2)cc1` [Example 83, (R)-5-(4-(morpholine-4-carbonyl)phenylamino)-3-(3-(2-oxo-2-(piperidin-1-yl)acetamido)piperidin-1-yl)-1,2,4-triazine-6-carboxamide]?
A: IC50 (Btk (IC50)): 100 to 1000 nM; IC50 [1]: 100 to 1000 nM

Q: Which results are given for `NC(=O)c1ncc(N2CCC[C@@H](NC(=O)c3ccccc3)C2)nc1Nc1ccc(C2CCN(C3CCCC3)CC2)cc1` [Example 303, (R)-5-(3-benzamidopiperidin-1-yl)-3-(4-(1-cyclopentylpiperidin-4-yl)phenylamino)pyrazine-2-carboxamide]?
A: IC50 [1]: < 10 nM; IC50 (read-out: Btk (IC50)): < 10 nM

Q: How did the IC50 [1] turn out when `CN(C)C(=O)N[C@@H]1CCCN(c2cnc(C(N)=O)c(Nc3ccc(C(=O)N(C)C)cc3)n2)C1` [Example 194, (R)-3-(4-(dimethylcarbamoyl)phenylamino)-5-(3-(3,3-dimethylureido)piperidin-1-yl)pyrazine-2-carboxamide] was run?
A: < 10 nM

Q: What about the IC50 (read-out: Btk (IC50)) of the same molecule?
A: < 10 nM

Q: Which IC50 [1] does the source give for `CN(C)C(=O)N[C@@H]1CCCN(c2cnc(C(N)=O)c(Nc3ccc(C4CCN(S(C)(=O)=O)CC4)cc3)n2)C1` [Example 172, (R)-5-(3-(3,3-dimethylureido)piperidin-1-yl)-3-(4-(1-(methylsulfonyl)piperidin-4-yl)phenylamino)pyrazine-2-carboxamide] here?
A: < 10 nM

Q: And the IC50 (read-out: Btk (IC50))?
A: < 10 nM

Q: With `COc1ccc(C(=O)N[C@@H]2CCCN(c3nnc(C(N)=O)c(Nc4ccc(N5CCN(C6CCCC6)CC5)cc4)n3)C2)cc1` [Example 331, (R)-5-(4-(4-cyclopentylpiperazin-1-yl)phenylamino)-3-(3-(4-methoxybenzamido)piperidin-1-yl)-1,2,4-triazine-6-carboxamide] as the molecule, how does the IC50 [1] read?
A: < 10 nM

Q: With `C[C@@H]1[C@H](NC(=O)N(C)C)CCCN1c1cnc(C(N)=O)c(Nc2ccc(C3(C(N)=O)CCN(C4CCCC4)CC3)cc2)n1` [Example 251, 3-(4-(4-carbamoyl-1-cyclopentylpiperidin-4-yl)phenylamino)-5-((2R,3R)-3-(3,3-dimethylureido)-2-methylpiperidin-1-yl)pyrazine-2-carboxamide] as the molecule, how does the IC50 (read-out: Btk (IC50)) read?
A: < 10 nM

Q: For `NC(=O)c1ncc(N2CCC[C@@H](NC=O)C2)nc1Nc1ccc(C2CCN(C3CCCC3)CC2)cc1` [Example 295, (R)-3-(4-(1-cyclopentylpiperidin-4-yl)phenylamino)-5-(3-formamidopiperidin-1-yl)pyrazine-2-carboxamide], which IC50 [1] is on record?
A: < 10 nM

Q: And the IC50 (read-out: Btk (IC50))?
A: < 10 nM

Q: With `CC(C)Oc1ccc(Nc2nc(N3CCC[C@@H](NC(=O)N(C)C)[C@H]3C)cnc2C(N)=O)cc1` [Example 243, 5-((2R,3R)-3-(3,3-dimethylureido)-2-methylpiperidin-1-yl)-3-(4-isopropoxyphenylamino)pyrazine-2-carboxamide] as the molecule, how does the IC50 [1] read?
A: < 10 nM

Q: For `CN(C)C(=O)N[C@@H]1CCCN(c2cnc(C(N)=O)c(Nc3ccc(N4CCN(C5CCCC5)CC4)cc3)n2)C1` [Example 215, (R)-3-(4-(4-cyclopentylpiperazin-1-yl)phenylamino)-5-(3-(3,3-dimethylureido)piperidin-1-yl)pyrazine-2-carboxamide], which IC50 [1] is on record?
A: < 10 nM

Q: What about the IC50 (read-out: Btk (IC50)) of the same molecule?
A: < 10 nM

Q: For `C[C@@H]1[C@H](NC(=O)N(C)C)CCCN1c1cnc(C(N)=O)c(Nc2ccc(C3CCN(C4CCC4)CC3)cc2)n1` [Example 238, 3-(4-(1-cyclobutylpiperidin-4-yl)phenylamino)-5-((2R,3R)-3-(3,3-dimethylureido)-2-methylpiperidin-1-yl)pyrazine-2-carboxamide], which IC50 [1] is on record?
A: < 10 nM

Q: What about the IC50 (read-out: Btk (IC50)) of the same molecule?
A: < 10 nM

Q: How did the IC50 [1] turn out when `CN(C)C(=O)N[C@@H]1CCCN(c2cnc(C(N)=O)c(Nc3cnn(C4CCN(C5CCCC5)CC4)c3)n2)C1` [Example 218, (R)-3-(1-(1-cyclopentylpiperidin-4-yl)-1H-pyrazol-4-ylamino)-5-(3-(3,3-dimethylureido)piperidin-1-yl)pyrazine-2-carboxamide] was run?
A: < 10 nM

Q: With `NC(=O)c1ncc(N2CCC[C@@H](NC(=O)c3cncc(Cl)c3)C2)nc1Nc1ccc(C2CCN(C3CC3)CC2)cc1` [Example 313, (R)-5-(3-(5-chloronicotinamido)piperidin-1-yl)-3-(4-(1-cyclopropylpiperidin-4-yl)phenylamino)pyrazine-2-carboxamide] as the molecule, how does the IC50 [1] read?
A: < 10 nM

Q: And the IC50 (read-out: Btk (IC50))?
A: < 10 nM

Q: Which IC50 [1] does the source give for `COc1ccc(C(=O)N[C@@H]2CCCN(c3cnc(C(N)=O)c(Nc4ccc(C5CCNCC5)c(F)c4)n3)C2)cc1` [Example 163, (R)-3-(3-fluoro-4-(piperidin-4-yl)phenylamino)-5-(3-(4-methoxybenzamido)piperidin-1-yl)pyrazine-2-carboxamide] here?
A: < 10 nM

Q: And the IC50 (read-out: Btk (IC50))?
A: < 10 nM

Q: `NC(=O)c1ncc(N2CCC[C@@H](NC(=O)c3cccc(Cl)c3)C2)nc1Nc1ccc(C2CCN(C3CC3)CC2)cc1` [Example 312, (R)-5-(3-(3-chlorobenzamido)piperidin-1-yl)-3-(4-(1-cyclopropylpiperidin-4-yl)phenylamino)pyrazine-2-carboxamide] was tested. Which IC50 [1] did it give?
A: < 10 nM

Q: What about the IC50 (read-out: Btk (IC50)) of the same molecule?
A: < 10 nM
